Experimental data: patent US11292807B2 (OCEANS LTD., priority 2015, dated 2022)
Where two headings read alike, the source gives them in different places.

Experiments:
[1] = system: THP-1 (acute monocytic leukemia); assay: CIMA assay, cell viability, THP-1; settings: for Fold change in viability AVG / In vitro activity against cancer cell lines, THP-1 AVG: THP-1
[2] = system: U373 (glioblastoma-astrocytoma); assay: CIMA assay, cell viability, U373; settings: for Fold change in viability AVG / In vitro activity against cancer cell lines, U373 AVG: U373
[3] = CIMA assay, cell viability, CCD1079SK; settings: human, Average cell viability, CCD
[4] = system: CCD1079SK (fibroblast, noncancerous but proliferating); assay: CIMA assay, cell viability, CCD1079SK; settings: CCD
MDA-MB [5] = settings: MDA-MB
[6] = system: SKOV3 (ovarian adenocarcinoma); assay: CIMA assay, cell viability, SKOV3; settings: for Fold change in viability AVG / In vitro activity against cancer cell lines, SKOV AVG: SKOV
A549 (lung carcinoma) = assay: CIMA assay (colorimetric indicator of metabolic activity), cell viability, A549; settings: for Fold change in viability AVG / In vitro activity against cancer cell lines, A549 AVG: A549
MDA-MB [7] = assay: cells; settings: Homo sapiens, read-out: Average cell viability, MDA-MB
PC3 = assay: CIMA assay, cell viability, PC3; settings: for Fold change in viability AVG / In vitro activity against cancer cell lines, PC3 AVG: PC3

## CCCCCCCCCCCCCCCC(=O)OCC(COC1OC(CO)C(O)C(O)C1O)OC(=O)CCCCCCCCCCCCC (centres unmarked) [Compound 16, MGDG C16:0/C14:0]
[1]; Homo sapiens, THP-1, read-out: Average cell viability, THP-1, 1 ug/mL
  viability at 1 µg/mL: 101%
[1]; Homo sapiens, THP-1, read-out: Average cell viability, THP-1, 10 ug/mL
  viability at 10 µg/mL: 101%
[1]; Homo sapiens, THP-1, read-out: Average cell viability, THP-1, 50 ug/mL
  viability at 50 µg/mL: 86%
[1]; Homo sapiens, THP-1, read-out: Average cell viability, THP-1, 100 ug/mL
  viability at 100 µg/mL: 46%
[1]; 1 ug/mL
  Fold change in viability AVG: 1.14
  In vitro activity against cancer cell lines, THP-1 AVG: 1.14
[1]; 10 ug/mL
  Fold change in viability AVG: 1.15
  In vitro activity against cancer cell lines, THP-1 AVG: 1.15
[1]; 50 ug/mL
  Fold change in viability AVG: 0.75
  In vitro activity against cancer cell lines, THP-1 AVG: 0.75
[1]; 100 ug/mL
  Fold change in viability AVG: 0.52
  In vitro activity against cancer cell lines, THP-1 AVG: 0.52
[2]; Homo sapiens, U373 MG, read-out: Average cell viability, U373, 1 ug/mL
  viability at 1 µg/mL: 108%
[2]; Homo sapiens, U373 MG, read-out: Average cell viability, U373, 10 ug/mL
  viability at 10 µg/mL: 95%
[2]; Homo sapiens, U373 MG, read-out: Average cell viability, U373, 50 ug/mL
  viability at 50 µg/mL: 48%
[2]; Homo sapiens, U373 MG, read-out: Average cell viability, U373, 100 ug/mL
  viability at 100 µg/mL: 9%
[2]; 1 ug/mL
  Fold change in viability AVG: 1.09
  In vitro activity against cancer cell lines, U373 AVG: 1.09
[2]; 10 ug/mL
  Fold change in viability AVG: 0.97
  In vitro activity against cancer cell lines, U373 AVG: 0.97
[2]; 50 ug/mL
  Fold change in viability AVG: 0.49
  In vitro activity against cancer cell lines, U373 AVG: 0.49
[2]; 100 ug/mL
  Fold change in viability AVG: 0.09
  In vitro activity against cancer cell lines, U373 AVG: 0.09
[3]; CCD1079SK fibroblast cells (noncancerous, proliferating), 1 ug/mL
  viability at 72 h, 1 ug/mL: 106%
[3]; CCD1079SK fibroblast cells (noncancerous, proliferating), 10 ug/mL
  viability at 72 h, 10 ug/mL: 98%
[3]; CCD1079SK fibroblasts (noncancerous, proliferating), 50 ug/mL
  viability at 72 h, 50 ug/mL: 44%
[3]; CCD1079SK fibroblasts (noncancerous, proliferating), 100 ug/mL
  viability at 72 h, 100 ug/mL: 19%
[4]; 1 ug/mL
  Fold change in viability AVG: 1.16
[4]; 10 ug/mL
  Fold change in viability AVG: 1.08
[4]; 50 ug/mL
  Fold change in viability AVG: 0.48
[4]; 100 ug/mL
  Fold change in viability AVG: 0.21
MDA-MB [5]; 1 ug/mL
  Fold change in viability AVG: 1.08
  In vitro activity against cancer cell lines, MDA-MB AVG: 1.08
MDA-MB [5]; 10 ug/mL
  Fold change in viability AVG: 1.09
  In vitro activity against cancer cell lines, MDA-MB AVG: 1.09
MDA-MB [5]; 50 ug/mL
  Fold change in viability AVG: 0.76
  In vitro activity against cancer cell lines, MDA-MB AVG: 0.76
MDA-MB [5]; 100 ug/mL
  Fold change in viability AVG: 0.21
  In vitro activity against cancer cell lines, MDA-MB AVG: 0.21
[6]; Homo sapiens, SK-OV-3, read-out: Average cell viability, SKOV, 1 ug/mL
  viability at 1 µg/mL: 102%
[6]; Homo sapiens, SK-OV-3, read-out: Average cell viability, SKOV, 10 ug/mL
  viability at 10 µg/mL: 95%
[6]; Homo sapiens, SK-OV-3, read-out: Average cell viability, SKOV, 50 ug/mL
  viability at 50 µg/mL: 83%
[6]; Homo sapiens, SK-OV-3, read-out: Average cell viability, SKOV, 100 ug/mL
  viability at 100 µg/mL: 68%
[6]; 1 ug/mL
  Fold change in viability AVG: 1.09
  In vitro activity against cancer cell lines, SKOV AVG: 1.09
[6]; 10 ug/mL
  Fold change in viability AVG: 1.02
  In vitro activity against cancer cell lines, SKOV AVG: 1.02
[6]; 50 ug/mL
  Fold change in viability AVG: 0.90
  In vitro activity against cancer cell lines, SKOV AVG: 0.90
[6]; 100 ug/mL
  Fold change in viability AVG: 0.74
  In vitro activity against cancer cell lines, SKOV AVG: 0.74
A549 (lung carcinoma); 1 ug/mL
  Fold change in viability AVG: 1.13
  In vitro activity against cancer cell lines, A549 AVG: 1.13
A549 (lung carcinoma); 10 ug/mL
  Fold change in viability AVG: 1.16
  In vitro activity against cancer cell lines, A549 AVG: 1.16
A549 (lung carcinoma); 50 ug/mL
  Fold change in viability AVG: 0.99
  In vitro activity against cancer cell lines, A549 AVG: 0.99
A549 (lung carcinoma); 100 ug/mL
  Fold change in viability AVG: 0.60
  In vitro activity against cancer cell lines, A549 AVG: 0.60
A549 (lung carcinoma); Homo sapiens, A549, read-out: Average cell viability, A549, 1 ug/mL
  viability at 1 µg/mL: 97%
A549 (lung carcinoma); Homo sapiens, A549, read-out: Average cell viability, A549, 10 ug/mL
  viability at 10 µg/mL: 99%
A549 (lung carcinoma); Homo sapiens, A549, read-out: Average cell viability, A549, 50 ug/mL
  viability at 50 µg/mL: 85%
A549 (lung carcinoma); Homo sapiens, A549, read-out: Average cell viability, A549, 100 ug/mL
  viability at 100 µg/mL: 52%
MDA-MB [7]; 1 ug/mL
  viability at 1 µg/mL: 99%
MDA-MB [7]; 10 ug/mL
  viability at 10 µg/mL: 101%
MDA-MB [7]; 50 ug/mL
  viability at 50 µg/mL: 70%
MDA-MB [7]; 100 ug/mL
  viability at 100 µg/mL: 20%
PC3; Homo sapiens, PC-3, read-out: Average cell viability, PC3, 1 ug/mL
  viability at 1 µg/mL: 100%
PC3; Homo sapiens, PC-3, read-out: Average cell viability, PC3, 10 ug/mL
  viability at 10 µg/mL: 96%
PC3; Homo sapiens, PC-3, read-out: Average cell viability, PC3, 50 ug/mL
  viability at 50 µg/mL: 72%
PC3; Homo sapiens, PC-3, read-out: Average cell viability, PC3, 100 ug/mL
  viability at 100 µg/mL: 9%
PC3; 1 ug/mL
  Fold change in viability AVG: 1.04
  In vitro activity against cancer cell lines, PC3 AVG: 1.04
PC3; 10 ug/mL
  Fold change in viability AVG: 0.99
  In vitro activity against cancer cell lines, PC3 AVG: 0.99
PC3; 50 ug/mL
  Fold change in viability AVG: 0.75
  In vitro activity against cancer cell lines, PC3 AVG: 0.75
PC3; 100 ug/mL
  Fold change in viability AVG: 0.10
  In vitro activity against cancer cell lines, PC3 AVG: 0.10
